Assay results taken from patent US10040781B2, “Tank-binding kinase inhibitor compounds” (Gilead Sciences, Inc., priority 2014, dated 2018).

Columns and labels:
IKKε = IKKε (Homo sapiens (Human), UniProt Q14164); experiment: IKKε TR-FRET enzymatic assay; type: biochemical; settings: TR-FRET, 2×Km ATP; geometric mean of minimum four determinations; read-out: IKKe IC50
hJAK2 = hJAK2 (Homo sapiens (Human), UniProt O60674); experiment: hJAK2 LANCE TR-FRET enzymatic assay; type: biochemical; settings: read-out: JAK2 IC50
Sequence of hJAK2 (O60674 whole entry): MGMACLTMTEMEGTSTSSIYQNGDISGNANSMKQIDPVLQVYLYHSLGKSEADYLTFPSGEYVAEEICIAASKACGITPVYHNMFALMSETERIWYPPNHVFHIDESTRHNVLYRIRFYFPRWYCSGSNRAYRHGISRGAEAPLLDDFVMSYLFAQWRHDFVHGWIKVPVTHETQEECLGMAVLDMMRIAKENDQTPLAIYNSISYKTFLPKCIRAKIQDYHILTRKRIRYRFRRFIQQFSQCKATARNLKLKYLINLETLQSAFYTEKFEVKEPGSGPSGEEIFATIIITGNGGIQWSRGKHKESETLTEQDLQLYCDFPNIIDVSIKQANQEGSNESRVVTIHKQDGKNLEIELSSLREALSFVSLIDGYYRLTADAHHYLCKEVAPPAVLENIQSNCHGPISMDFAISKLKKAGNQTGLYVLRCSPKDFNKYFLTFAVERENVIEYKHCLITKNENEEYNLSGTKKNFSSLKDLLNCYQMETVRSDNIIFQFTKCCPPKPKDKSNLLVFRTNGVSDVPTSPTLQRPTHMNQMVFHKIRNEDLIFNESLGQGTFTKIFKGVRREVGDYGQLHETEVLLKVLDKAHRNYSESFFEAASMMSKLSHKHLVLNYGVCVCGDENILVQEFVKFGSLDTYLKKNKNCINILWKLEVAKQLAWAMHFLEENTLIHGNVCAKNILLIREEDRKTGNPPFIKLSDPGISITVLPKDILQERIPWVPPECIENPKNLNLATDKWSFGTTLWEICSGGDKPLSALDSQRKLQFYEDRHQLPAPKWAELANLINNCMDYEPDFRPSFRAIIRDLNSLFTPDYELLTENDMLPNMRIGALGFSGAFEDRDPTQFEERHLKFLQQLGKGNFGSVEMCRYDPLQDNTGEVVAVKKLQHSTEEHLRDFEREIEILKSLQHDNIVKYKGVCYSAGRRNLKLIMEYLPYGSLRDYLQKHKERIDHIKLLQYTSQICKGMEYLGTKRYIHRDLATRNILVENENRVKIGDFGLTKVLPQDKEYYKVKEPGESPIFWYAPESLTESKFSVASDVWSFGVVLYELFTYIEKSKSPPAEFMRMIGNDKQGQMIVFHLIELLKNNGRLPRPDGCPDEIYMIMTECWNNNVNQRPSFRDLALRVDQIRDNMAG

TBK1 = TBK1 (Homo sapiens (Human), UniProt Q9UHD2); experiment: TBK1 TR-FRET enzymatic assay;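 also: phosphorylation of a biotinylated Ser/Thr peptide by purified full-length recombinant TBK1, read by TR-FRET after 240 min at 25 °C, IC50 is the geometric mean of at least four runs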
Sequence of TBK1 (Q9UHD2 whole entry): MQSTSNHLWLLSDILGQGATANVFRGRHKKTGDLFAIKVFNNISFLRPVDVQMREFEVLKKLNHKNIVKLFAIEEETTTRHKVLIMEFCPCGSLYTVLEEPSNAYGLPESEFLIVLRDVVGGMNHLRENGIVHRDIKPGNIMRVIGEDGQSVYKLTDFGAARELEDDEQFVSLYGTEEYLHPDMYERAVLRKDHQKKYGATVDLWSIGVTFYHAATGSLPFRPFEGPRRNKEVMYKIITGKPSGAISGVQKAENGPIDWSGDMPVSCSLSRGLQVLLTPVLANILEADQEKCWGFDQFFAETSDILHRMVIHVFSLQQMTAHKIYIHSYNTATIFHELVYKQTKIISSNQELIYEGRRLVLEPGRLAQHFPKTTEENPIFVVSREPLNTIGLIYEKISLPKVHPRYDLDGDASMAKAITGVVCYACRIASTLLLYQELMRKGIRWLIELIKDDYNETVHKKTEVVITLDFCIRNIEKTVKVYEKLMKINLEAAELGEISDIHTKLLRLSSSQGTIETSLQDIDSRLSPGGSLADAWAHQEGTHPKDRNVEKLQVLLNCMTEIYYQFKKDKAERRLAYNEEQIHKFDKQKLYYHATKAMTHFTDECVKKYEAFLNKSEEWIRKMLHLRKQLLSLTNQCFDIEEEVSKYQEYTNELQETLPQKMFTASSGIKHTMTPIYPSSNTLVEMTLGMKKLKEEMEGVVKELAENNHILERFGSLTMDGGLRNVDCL

Sequence of IKKε (Q14164 whole entry): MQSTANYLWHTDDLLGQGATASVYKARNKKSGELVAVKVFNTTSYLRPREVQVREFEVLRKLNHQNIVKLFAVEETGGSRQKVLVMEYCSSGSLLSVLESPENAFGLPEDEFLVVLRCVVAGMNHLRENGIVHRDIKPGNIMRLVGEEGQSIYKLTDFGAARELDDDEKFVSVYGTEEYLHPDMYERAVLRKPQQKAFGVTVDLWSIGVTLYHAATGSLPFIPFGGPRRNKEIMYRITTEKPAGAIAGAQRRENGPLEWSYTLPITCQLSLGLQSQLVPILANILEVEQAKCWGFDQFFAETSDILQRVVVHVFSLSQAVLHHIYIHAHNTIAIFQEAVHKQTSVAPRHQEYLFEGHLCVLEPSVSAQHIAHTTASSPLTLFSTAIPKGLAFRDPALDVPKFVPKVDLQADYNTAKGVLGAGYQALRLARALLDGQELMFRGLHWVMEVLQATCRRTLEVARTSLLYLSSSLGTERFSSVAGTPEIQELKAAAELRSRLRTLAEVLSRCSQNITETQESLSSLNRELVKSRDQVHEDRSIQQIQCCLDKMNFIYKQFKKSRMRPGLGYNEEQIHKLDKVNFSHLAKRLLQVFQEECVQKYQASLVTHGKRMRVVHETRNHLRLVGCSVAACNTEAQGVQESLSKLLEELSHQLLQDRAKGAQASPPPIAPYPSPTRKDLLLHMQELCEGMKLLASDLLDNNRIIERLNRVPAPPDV

IC50 (IKKε) | IC50 (hJAK2) | IC50 (TBK1) | SMILES
202 nM | ≥ 1000 nM | 43 nM | C[C@@H](O)C(=O)N1C[C@@H](F)[C@@H](Oc2ccc(-c3ncnc(Nc4ccc(N5CCN(C6COC6)CC5)cc4)n3)cc2C#N)C[C@@H]1C [Example 412, 2-(((2S,4S,5R)-5-fluoro-1-((R)-2-hydroxypropanoyl)-2-methylpiperidin-4-yl)oxy)-5-(4-((4-(4-(oxetan-3-yl)piperazin-1-yl)phenyl)amino)-1,3,5-triazin-2-yl)benzonitrile]
3 nM | 163 nM | 3 nM | N#Cc1cc(-c2ncnc(Nc3ccc(N4CCN(C5COC5)CC4)cc3)n2)ccc1O[C@H]1CCN(C(=O)C2CNC(=O)N2)C[C@H]1F (stereo partly drawn) [Example 414, 2-(((3R,4S)-3-fluoro-1-(2-oxoimidazolidine-4-carbonyl)piperidin-4-yl)oxy)-5-(4-((4-(4-(oxetan-3-yl)piperazin-1-yl)phenyl)amino)-1,3,5-triazin-2-yl)benzonitrile]
79 nM | 694 nM | 17 nM | N#CCCC(=O)N1CC[C@H](Oc2ccc(-c3ncnc(Nc4ccc(N5CCN(C6COC6)CC5)cc4)n3)cc2C#N)[C@H](F)C1 [Example 417, 2-(((3R,4S)-1-(3-cyanopropanoyl)-3-fluoropiperidin-4-yl)oxy)-5-(4-((4-(4-(oxetan-3-yl)piperazin-1-yl)phenyl)amino)-1,3,5-triazin-2-yl)benzonitrile]
2 nM | 228 nM | 2 nM | CC(C)(C)n1cc(Nc2ncnc(-c3ccc(O[C@H]4CCN(C(=O)[C@@H](O)CO)C[C@H]4F)c(C#N)c3)n2)cn1 [Example 419, 5-(4-((1-(tert-butyl)-1H-pyrazol-4-yl)amino)-1,3,5-triazin-2-yl)-2-(((3R,4S)-1-((S)-2,3-dihydroxypropanoyl)-3-fluoropiperidin-4-yl)oxy)benzonitrile]
156 nM | 60 nM | 80 nM | CN1CC(Oc2ccc(-c3ncnc(Nc4ccc(N5CCN(C6COC6)CC5)cc4)n3)cc2C#N)CNC1=O (stereo not drawn) [Example 421, 2-((1-methyl-2-oxohexahydropyrimidin-5-yl)oxy)-5-(4-((4-(4-(oxetan-3-yl)piperazin-1-yl)phenyl)amino)-1,3,5-triazin-2-yl)benzonitrile]
156 nM | 849 nM | 65 nM | CN1CC(Oc2ccc(-c3ncnc(Nc4ccc(N5CCN(C6COC6)CC5)cc4)n3)cc2C#N)CCC1=O (stereo not drawn) [Example 422, 2-((1-methyl-6-oxopiperidin-3-yl)oxy)-5-(4-((4-(4-(oxetan-3-yl)piperazin-1-yl)phenyl)amino)-1,3,5-triazin-2-yl)benzonitrile]
21 nM | 590 nM | 7 nM | N#Cc1cc(-c2ncnc(Nc3ccc(N4CCN(C5COC5)CC4)cc3)n2)ccc1O[C@H]1CCN(C(=O)N2CC[C@@H](O)C2)C[C@H]1F [Example 425, 2-(((3R,4S)-3-fluoro-1-((R)-3-hydroxypyrrolidine-1-carbonyl)piperidin-4-yl)oxy)-5-(4-((4-(4-(oxetan-3-yl)piperazin-1-yl)phenyl)amino)-1,3,5-triazin-2-yl)benzonitrile]
33 nM | 601 nM | 12 nM | N#Cc1cc(-c2ncnc(Nc3ccc(N4CCN(C5COC5)CC4)cc3)n2)ccc1O[C@H]1CCN(C(=O)NCCO)C[C@H]1F [Example 429, (3R,4S)-4-(2-cyano-4-(4-((4-(4-(oxetan-3-yl)piperazin-1-yl)phenyl)amino)-1,3,5-triazin-2-yl)phenoxy)-3-fluoro-N-(2-hydroxyethyl)piperidine-1-carboxamide]
17 nM | 496 nM | 11 nM | C[C@H](O)C(=O)N1C[C@@H](C)[C@H](Oc2ccc(-c3ncnc(Nc4ccc(N5CCN(C6COC6)CC5)cc4)n3)cc2C#N)C(F)(F)C1 [Example 431, trans-2-((3,3-difluoro-1-((S)-2-hydroxypropanoyl)-5-methylpiperidin-4-yl)oxy)-5-(4-((4-(4-(oxetan-3-yl)piperazin-1-yl)phenyl)amino)-1,3,5-triazin-2-yl)benzonitrile]

Second part, the compound before the results:

SMILES | IC50 (IKKε) | IC50 (hJAK2) | IC50 (TBK1)
CN1C(=O)CC[C@H]1C(=O)N1CC[C@H](Oc2ccc(-c3ncnc(Nc4ccc(N5CCN(C6COC6)CC5)c(F)c4)n3)cc2C#N)[C@H](F)C1 [Example 408, 2-(((3R,4S)-3-fluoro-1-((S)-1-methyl-5-oxopyrrolidine-2-carbonyl)piperidin-4-yl)oxy)-5-(4-((3-fluoro-4-(4-(oxetan-3-yl)piperazin-1-yl)phenyl)amino)-1,3,5-triazin-2-yl)benzonitrile] | 119 nM | ≥ 1000 nM | 86 nM
N#Cc1cc(-c2ncnc(Nc3ccc(N4CCN(C5COC5)CC4)cc3)n2)ccc1O[C@H]1CCN(C(=O)c2cccc(=O)[nH]2)C[C@H]1F [Example 413, 2-(((3R,4S)-3-fluoro-1-(6-oxo-1,6-dihydropyridine-2-carbonyl)piperidin-4-yl)oxy)-5-(4-((4-(4-(oxetan-3-yl)piperazin-1-yl)phenyl)amino)-1,3,5-triazin-2-yl)benzonitrile] | 2 nM | 109 nM | 3 nM
C[C@H](O)C(=O)N1C[C@@H](F)[C@@H](Oc2ccc(-c3ncnc(Nc4ccc(N5CCN(C6COC6)CC5)cc4)n3)cc2C#N)C[C@@H]1C [Example 415, 2-(((2S,4S,5R)-5-fluoro-1-((S)-2-hydroxypropanoyl)-2-methylpiperidin-4-yl)oxy)-5-(4-((4-(4-(oxetan-3-yl)piperazin-1-yl)phenyl)amino)-1,3,5-triazin-2-yl)benzonitrile] | 142 nM | ≥ 1000 nM | 58 nM
Cc1nnc(C(=O)N2CC[C@H](Oc3ccc(-c4ncnc(Nc5cnn(C(C)(C)C)c5)n4)cc3C#N)[C@H](F)C2)[nH]1 [Example 418, 5-(4-((1-(tert-butyl)-1H-pyrazol-4-yl)amino)-1,3,5-triazin-2-yl)-2-(((3R,4S)-3-fluoro-1-(5-methyl-4H-1,2,4-triazole-3-carbonyl)piperidin-4-yl)oxy)benzonitrile] | 2 nM | 212 nM | 4 nM
CC(C)(C)n1cc(Nc2ncnc(-c3ccc(O[C@H]4CCN(C(=O)CO)C[C@H]4F)c(C#N)c3)n2)cn1 [Example 420, 5-(4-((1-(tert-butyl)-1H-pyrazol-4-yl)amino)-1,3,5-triazin-2-yl)-2-(((3R,4S)-3-fluoro-1-(2-hydroxyacetyl)piperidin-4-yl)oxy)benzonitrile] | 2 nM | 190 nM | 2 nM
N#Cc1cc(-c2ncnc(Nc3ccc(N4CCN(C5COC5)CC4)cc3)n2)ccc1O[C@H]1CCN(C(=O)N2CC[C@@H](F)C2)C[C@H]1F [Example 423, 2-(((3R,4S)-3-fluoro-1-((R)-3-fluoropyrrolidine-1-carbonyl)piperidin-4-yl)oxy)-5-(4-((4-(4-(oxetan-3-yl)piperazin-1-yl)phenyl)amino)-1,3,5-triazin-2-yl)benzonitrile] | 55 nM | 681 nM | 16 nM
N#Cc1cc(-c2ncnc(Nc3ccc(N4CCN(C5COC5)CC4)cc3)n2)ccc1O[C@H]1CCN(C(=O)N2CCCC2)C[C@H]1F [Example 424, 2-(((3R,4S)-3-fluoro-1-(pyrrolidine-1-carbonyl)piperidin-4-yl)oxy)-5-(4-((4-(4-(oxetan-3-yl)piperazin-1-yl)phenyl)amino)-1,3,5-triazin-2-yl)benzonitrile] | 12 nM | ≥ 1000 nM | 6 nM
N#Cc1cc(-c2ncnc(Nc3ccc(N4CCN(C5COC5)CC4)cc3)n2)ccc1O[C@H]1CCN(C(=O)N2CC[C@H](O)C2)C[C@H]1F [Example 426, 2-(((3R,4S)-3-fluoro-1-((S)-3-hydroxypyrrolidine-1-carbonyl)piperidin-4-yl)oxy)-5-(4-((4-(4-(oxetan-3-yl)piperazin-1-yl)phenyl)amino)-1,3,5-triazin-2-yl)benzonitrile] | 201 nM | ≥ 1000 nM | 79 nM
COCCNC(=O)N1CC[C@H](Oc2ccc(-c3ncnc(Nc4ccc(N5CCN(C6COC6)CC5)cc4)n3)cc2C#N)[C@H](F)C1 [Example 427, (3R,4S)-4-(2-cyano-4-(4-((4-(4-(oxetan-3-yl)piperazin-1-yl)phenyl)amino)-1,3,5-triazin-2-yl)phenoxy)-3-fluoro-N-(2-methoxyethyl)piperidine-1-carboxamide] | 74 nM | ≥ 1000 nM | 31 nM
CN(CCO)C(=O)N1CC[C@H](Oc2ccc(-c3ncnc(Nc4ccc(N5CCN(C6COC6)CC5)cc4)n3)cc2C#N)[C@H](F)C1 [Example 428, (3R,4S)-4-(2-cyano-4-(4-((4-(4-(oxetan-3-yl)piperazin-1-yl)phenyl)amino)-1,3,5-triazin-2-yl)phenoxy)-3-fluoro-N-(2-hydroxyethyl)-N-methylpiperidine-1-carboxamide] | 64 nM | ≥ 1000 nM | 41 nM
C[C@@H](N)C(=O)N1CC[C@H](Oc2ccc(-c3ncnc(Nc4ccc(N5CCN(C6COC6)CC5)cc4)n3)cc2C#N)[C@H](F)C1 [Example 433, 2-(((3R,4S)-1-((R)-2-aminopropanoyl)-3-fluoropiperidin-4-yl)oxy)-5-(4-((4-(4-(oxetan-3-yl)piperazin-1-yl)phenyl)amino)-1,3,5-triazin-2-yl)benzonitrile] | 283 nM | ≥ 1000 nM | 76 nM
N#Cc1cc(-c2ncnc(Nc3ccc(N4CCN(C5COC5)CC4)cc3)n2)ccc1O[C@@H]1CCN(C(=O)c2nc(=O)[nH][nH]2)C1 [Example 435, (R)-5-(4-((4-(4-(oxetan-3-yl)piperazin-1-yl)phenyl)amino)-1,3,5-triazin-2-yl)-2-((1-(5-oxo-2,5-dihydro-1H-1,2,4-triazole-3-carbonyl)pyrrolidin-3-yl)oxy)benzonitrile] | 292 nM | ≥ 1000 nM | 411 nM
